From US20150017665A1, “Peptides and Methods for Detecting MPO-ANCA” (The University of North Carolina at Chapel Hill, priority 2012, published 2015)

Assays:
[1] = system: anti-MPO^447-459 autoantibody; assay: Epitope masking ELISA with ceruloplasmin and its fragments; type: binding, human
Source text: Serum proteins that bound immobilized MPO peptide aa447-459 were eluted and sequenced for identification. […] Sequenced on a 4800 MALDI TOF-TOF, the protein was identified as ceruloplasmin (CP), and confirmed by western blot analysis probed with a rabbit anti-human anti-CP polyclonal antibody (Abeam). Native CP was purchased (Enzo Life Science) and proteolytically digested in vitro by plasmin (Haemtech).
(§1) To isolate the putative serum factor, immobilized MPO aa447-459 peptide was used as bait to fish-out host proteins with binding capacity. […] However, the CP bound to aa447-459 was primarily a 50 kD protein on sodium dodecyl sulfate polyacrylamide gel electrophoresis (SDS-PAGE), while full length CP is 151 kD (FIG. 6D). An anti-ceruloplasmin western blot confirmed the fragment to be a portion of CP (FIG. 6E). To test the role of proteolytic cleavage in generating the blocking factor, a plasmin-generated fragment of CP (Kingston et al., Proc. Natl. Acad. Sci. USA 74:5377 (1977)) was tested for epitope masking capability (FIG. 6F).

[2] = system: MPO-ANCA IgG (polyclonal); assay: Effect of CP on binding of polyclonal MPO-ANCA Ig to native MPO (ELISA); set-up: species or system human; conditions: MPO-ANCA IgG from four patients
Source text: as §1

effect on binding of polyclonal MPO-ANCA Ig to native MPO [2]	Molecule	generation of a functional (blocking) ceruloplasmin fragment by serum proteases [1]	decrease of anti-MPO^447-459 autoantibody reactivity ([1]; ELISA, n=8)
	thrombin [reference compound]	did not	
	urokinase [reference compound]	produced a functional fragment	
did not affect the overall binding	digested CP: ceruloplasmin digested with plasmin in vitro to produce a 50 kD fragment (protein) SVPPSASHVAPTETFTYEWTVPKEVGPTNADPVCLAKMYYSAVEPTKDIFTGLIGPMKICKKGSLHANGRQKDVDKEFYLFPTVFDENESLLLEDNIRMFTTAPDQVDKEDEDFQESNKMHSMNGFMYGNQPGLTMCKGDSVVWYLFSAGNEADVHGIYFSGNTYLWRGERRDTANLFPQTSLTLHMWPDTEGTFNVECLTTDHYTGGMKQKYTVNQCRRQSEDSTFYLGERTYYIAAVEVEWDYSPQREWEKELHHLQEQNVSNAFLDKGEFYIGSKYKKVVYRQYTDSTFRVPVERKAEEEHLGILGPQLHADVGDKVKIIFKNMATRPYSIHAHGVQTESSTVTPTLPGETLTYVWKIPERSGAGTEDSACIPWAYYSTVDQVKDLYSGLIGPLIVCRRPYL		30-50%
